Experimental data taken from ChEMBL document CHEMBL1201862, “PubChem BioAssay data set” (2004).
Active and inactive are the calls of the source.

How the values were obtained:
[1] = target: T1, Orexin/Hypocretin receptor type 1 (Homo sapiens, UniProt O43613); assay: (§1) Fluorescence-based cell-based high throughput dose response assay for antagonists of the orexin 1 receptor (OX1R; HCRTR1). [Related pubchem assays (depositor defined):AID434989, AID435008, AID463079, AID485270, AID492963, AID492964, AID492965, AID493232, AID504717, AID504718]; assay type: functional
T1 sequence (O43613 whole entry): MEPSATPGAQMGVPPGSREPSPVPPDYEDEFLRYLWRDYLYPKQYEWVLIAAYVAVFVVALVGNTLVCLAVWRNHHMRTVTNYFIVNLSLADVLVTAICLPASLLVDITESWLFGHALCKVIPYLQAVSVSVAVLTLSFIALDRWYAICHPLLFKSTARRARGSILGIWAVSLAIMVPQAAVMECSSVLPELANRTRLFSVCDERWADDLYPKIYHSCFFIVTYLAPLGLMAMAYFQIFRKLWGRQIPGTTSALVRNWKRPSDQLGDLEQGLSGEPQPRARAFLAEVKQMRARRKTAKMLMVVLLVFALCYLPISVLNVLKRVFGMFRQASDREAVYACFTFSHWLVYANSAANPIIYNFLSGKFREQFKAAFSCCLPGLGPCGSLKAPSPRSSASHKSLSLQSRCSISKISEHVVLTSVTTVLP

[2] = target: T1, Orexin/Hypocretin receptor type 1; assay: as §1, with “Homogeneous Time Resolved Fluorescence (HTRF)-based” for “Fluorescence-based”; assay type: functional
CHO-K1 = assay: (§2) Counterscreen for antagonists of the orexin 1 receptor (OX1R; HCRTR1): Homogeneous time resolved fluorescence (HTRF)-based cell-based dose response assay to identify antagonists of the parental CHO-K1 cell line. [Related pubchem assays (depositor defined):AID434989, AID435008, AID463079, AID485270, AID492963, AID492964, AID492965, AID493232, AID504699, AID504701]; assay type: functional; conditions: Cricetulus griseus
Orexin receptor type 2 [3] = target: T2, Orexin receptor type 2 (Homo sapiens, UniProt O43614); assay: Counterscreen assay for antagonists of the orexin 1 receptor (OX1R; HCRTR1): Fluorescence-based cell-based dose response assay for antagonists of the orexin 2 receptor (OX2R; HCRTR2), run by assay provider.; assay type: functional
T2 sequence (O43614 whole entry): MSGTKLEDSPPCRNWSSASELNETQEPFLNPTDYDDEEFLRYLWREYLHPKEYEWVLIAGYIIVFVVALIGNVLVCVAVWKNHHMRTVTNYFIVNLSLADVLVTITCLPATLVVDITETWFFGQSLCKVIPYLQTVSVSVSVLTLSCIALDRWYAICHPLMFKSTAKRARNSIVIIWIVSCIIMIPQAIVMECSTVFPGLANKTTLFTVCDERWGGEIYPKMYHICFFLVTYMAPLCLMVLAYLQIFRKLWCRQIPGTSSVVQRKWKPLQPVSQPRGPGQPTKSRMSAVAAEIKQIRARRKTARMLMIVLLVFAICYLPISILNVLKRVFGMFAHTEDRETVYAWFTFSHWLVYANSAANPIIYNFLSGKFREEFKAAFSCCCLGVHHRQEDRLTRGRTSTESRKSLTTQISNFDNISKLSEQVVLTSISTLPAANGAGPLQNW

Orexin receptor type 2 [4] = target: T2, Orexin receptor type 2; assay: Counterscreen assay for antagonists of the orexin 1 receptor (OX1R; HCRTR1): Homogeneous Time Resolved Fluorescence (HTRF)-based cell-based dose response assay for antagonists of the orexin 2 receptor (OX2R; HCRTR2), run by assay provider.; assay type: functional
Kallikrein-7 = Kallikrein-7 (Homo sapiens, UniProt P49862); assay: Fluorescence Intensity-based biochemical primary high throughput dose response assay to identify activators of kallikrein-7 (K7) zymogen.
Sequence of Kallikrein-7 (P49862 whole entry): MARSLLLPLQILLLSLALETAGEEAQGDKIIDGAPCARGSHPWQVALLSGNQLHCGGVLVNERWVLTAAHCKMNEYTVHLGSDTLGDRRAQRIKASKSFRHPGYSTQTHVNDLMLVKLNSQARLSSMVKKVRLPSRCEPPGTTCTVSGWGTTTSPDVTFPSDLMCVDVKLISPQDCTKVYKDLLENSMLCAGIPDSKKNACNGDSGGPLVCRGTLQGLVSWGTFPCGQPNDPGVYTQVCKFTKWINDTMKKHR

[5] = as §2, with “Fluorescence-based” for “Homogeneous time resolved fluorescence (HTRF)-based”, “cell-based high throughput” for “cell-based”, “CHO” for “CHO-K1”; assay type: functional
[6] = test system: Streptococcus sp. 'group A'; assay: Streptococcus pyogenes SK(-)GAS viability under kanamycin – luminescence, BacTiterGlo, confirmation, counter-screen for streptokinase expression inhibitor project, dose response (AID 1900); assay type: functional, organism-based
Streptokinase A = target: T3, Streptokinase A (Streptococcus pyogenes serotype M1, UniProt P10520); assay: viability-normalized secreted streptokinase activity reduction – plasminogen activation absorbance, OD405, dose response (AID 1914); assay type: functional, Streptococcus pyogenes M1 GAS;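 note: secreted streptokinase activity via plasminogen activation per viability signal from cell pellet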
T3 sequence (P10520 whole entry): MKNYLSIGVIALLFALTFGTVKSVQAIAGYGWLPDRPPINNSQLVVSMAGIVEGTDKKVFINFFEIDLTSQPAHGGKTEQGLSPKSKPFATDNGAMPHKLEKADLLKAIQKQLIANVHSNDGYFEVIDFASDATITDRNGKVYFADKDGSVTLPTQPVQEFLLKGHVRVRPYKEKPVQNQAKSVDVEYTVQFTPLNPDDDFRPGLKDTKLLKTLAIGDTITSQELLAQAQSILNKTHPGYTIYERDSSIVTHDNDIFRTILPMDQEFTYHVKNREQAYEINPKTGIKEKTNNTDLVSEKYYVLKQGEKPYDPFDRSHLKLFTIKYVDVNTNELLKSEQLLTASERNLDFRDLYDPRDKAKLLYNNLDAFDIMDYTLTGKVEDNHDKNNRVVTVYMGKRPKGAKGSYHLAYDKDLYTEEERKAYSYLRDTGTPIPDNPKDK

[7] = ATP-based viability loss in HepG2 cells – cell-based, CellTiter-Glo luminescence, dry powder, set 3, cytotoxicity control, dose response (AID 720594); assay type: functional
[8] = dual-tagged ARNT PAS-B bead signal quenchers – biochemical, dry powder, artefact control for ARNT/TACC3 disruptor project, dose response (AID 720564)
Streptococcus = assay: GAS UMAA2166 growth inhibition – luminescence, BacTiterGlo, counter-screen for streptokinase expression inhibitor project, dose response (AID 1915); assay type: functional, organism-based;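 note: potency for reduction of bacterial viability or growth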
[9] = ATP-based viability loss in HEK293T cells – cell-based, CellTiter-Glo luminescence, dry powder, set 2, cytotoxicity control, dose response (AID 720595); assay type: functional; conditions: HEK293
[10] = target: Oxysterols receptor LXR-beta (Homo sapiens, UniProt P55055); assay: LXR agonists, Gal4 luciferase reporter, dose response, counter-screen for ssDAF-12 agonist project, cell-based, luminescence, HEK293, S. stercoralis campaign (AID 720737); assay type: functional; conditions: read-out: IC50 (the source's name)
Sequence of Oxysterols receptor LXR-beta (P55055 whole entry, the tested form may be a part): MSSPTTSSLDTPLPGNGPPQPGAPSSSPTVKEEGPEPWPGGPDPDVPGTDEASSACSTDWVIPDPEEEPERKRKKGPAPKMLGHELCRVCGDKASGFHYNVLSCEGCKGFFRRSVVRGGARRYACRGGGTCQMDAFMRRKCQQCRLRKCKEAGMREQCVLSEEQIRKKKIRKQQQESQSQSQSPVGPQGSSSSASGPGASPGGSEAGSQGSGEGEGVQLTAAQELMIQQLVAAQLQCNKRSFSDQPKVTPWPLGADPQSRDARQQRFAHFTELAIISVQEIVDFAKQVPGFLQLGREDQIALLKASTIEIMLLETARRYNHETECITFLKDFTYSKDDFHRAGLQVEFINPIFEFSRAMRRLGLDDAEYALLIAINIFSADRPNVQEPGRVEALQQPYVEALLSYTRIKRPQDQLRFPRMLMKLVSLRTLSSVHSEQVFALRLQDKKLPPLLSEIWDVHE

[11] = Luminescence-based cell-based high throughput dose response assay to identify activators of the DAF-12 from the parasite S. stercoralis (ssDAF-12).; assay type: functional
Paired box protein Pax-8 = Paired box protein Pax-8 (Homo sapiens, UniProt Q06710); assay: PAX8 transcriptional activity inhibition in RMG-I – RMG-I cells, luciferase, cherry-pick, dose response (AID 687027); assay type: functional, cell-based;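 note: luciferase reporter driven by Pax8 target thyroperoxidase promoter measured by SteadyGlo luminescence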
Sequence of Paired box protein Pax-8 (Q06710 whole entry): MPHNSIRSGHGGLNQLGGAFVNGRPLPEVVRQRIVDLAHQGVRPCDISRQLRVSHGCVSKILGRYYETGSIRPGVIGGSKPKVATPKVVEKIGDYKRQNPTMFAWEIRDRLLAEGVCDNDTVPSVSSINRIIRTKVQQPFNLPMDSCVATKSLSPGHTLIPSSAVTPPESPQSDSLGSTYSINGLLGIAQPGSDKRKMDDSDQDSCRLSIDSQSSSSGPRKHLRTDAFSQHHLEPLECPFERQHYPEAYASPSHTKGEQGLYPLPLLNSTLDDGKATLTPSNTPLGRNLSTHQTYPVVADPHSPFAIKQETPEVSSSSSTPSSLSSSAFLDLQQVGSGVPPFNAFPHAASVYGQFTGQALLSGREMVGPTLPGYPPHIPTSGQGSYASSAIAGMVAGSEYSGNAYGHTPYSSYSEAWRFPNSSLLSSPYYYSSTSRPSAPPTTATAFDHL

[12] = IGROV1 cell killing – plate reader, dry powder samples, PAX8 inhibitor project, dose response (AID 743043); assay type: functional, cell-based; conditions: IGROV-1
[13] = general cell-killing toxicity readout – plate reader, dry powder samples, cytotoxicity control for PAX8 inhibitor project, dose response (AID 743021); assay type: functional, cell-based
[14] = OVCAR-3 cell viability loss – plate reader, dry powder samples, PAX8 inhibitor project, dose response (AID 743044); assay type: functional, cell-based
[15] = target: Muscarinic acetylcholine receptor M5 (Homo sapiens, UniProt P08912); assay: potentiation of ACh response at human M5 – cell-based, concentration-response curve, dose response (AID 651878); assay type: functional
Sequence of Muscarinic acetylcholine receptor M5 (P08912 whole entry): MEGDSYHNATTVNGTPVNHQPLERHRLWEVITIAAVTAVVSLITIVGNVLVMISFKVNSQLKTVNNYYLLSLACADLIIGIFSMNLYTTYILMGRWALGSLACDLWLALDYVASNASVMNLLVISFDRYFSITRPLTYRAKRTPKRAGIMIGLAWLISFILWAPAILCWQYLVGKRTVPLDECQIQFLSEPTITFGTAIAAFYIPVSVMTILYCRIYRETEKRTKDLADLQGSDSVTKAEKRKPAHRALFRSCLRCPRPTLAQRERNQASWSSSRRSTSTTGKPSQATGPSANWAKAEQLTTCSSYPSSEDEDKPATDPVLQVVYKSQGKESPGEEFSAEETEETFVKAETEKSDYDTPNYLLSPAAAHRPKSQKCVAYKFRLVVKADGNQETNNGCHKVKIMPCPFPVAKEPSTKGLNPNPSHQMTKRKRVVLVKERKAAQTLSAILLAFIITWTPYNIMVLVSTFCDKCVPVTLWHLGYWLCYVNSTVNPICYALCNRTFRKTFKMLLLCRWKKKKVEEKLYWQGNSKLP

## O=C(OC1CCOC1=O)c1ccc(-c2nc3ccccc3s2)s1 (stereo not given)
[1]
  IC50: 9.49 µM (active)
[2]
  IC50: 1.98 µM (active)
CHO-K1
  IC50: 29.9 µM (inactive)
Orexin receptor type 2 [3]
  IC50: > 88.8 µM (inactive)
Orexin receptor type 2 [4]
  IC50: 11.4 µM (inactive)
Kallikrein-7
  EC50: > 69.5 µM (inactive)
[5]
  IC50: > 49.8 µM (inactive)

## CC1CCCN(S(=O)(=O)c2ccc(C(=O)Nc3nnc(C4=COCCO4)o3)cc2)C1 (stereo not given)
[6]
  EC50: 4.77 µM (active)
Streptokinase A
  EC50: > 150 µM (not active)
[7]
  AC50: > 52 µM (inactive)
[8]
  AC50: 101 µM (active)
Streptococcus
  EC50: 98.4 µM (active)
[9]
  AC50: 27.6 µM (active)

## COCCNC(=O)Cn1nc(-c2ccc(Cl)cc2)c2ccccc2c1=O
[10]
  EC50: > 67.5 µM (inactive)
[11]
  IC50: > 67.5 µM (inactive)

## C[C@@H]1CN([C@@H](C)CO)C(=O)Cc2cc(NS(=O)(=O)c3ccc(Cl)cc3)ccc2O[C@@H]1CN(C)CC1CCCCC1
Paired box protein Pax-8
  AC50: 11.7 µM (active)
[12]
  AC50: 46.2 µM (active)
[13]
  AC50: 41.9 µM (active)
[14]
  AC50: 21.2 µM (active)

## O=C1C(=O)N(CCCOc2ccccc2)c2ccc(OC(F)(F)F)cc21
[15]
  EC50: 1.97 µM (active)
